Test system: SEM cells
Assay: cell viability relative to DMSO control; higher = less cytotoxic
Conditions: 48 h
How it was run: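 Viability was expressed as a per-plate percentage of DMSO wells, with cell-free wells as background. Leukemia cells (NOMO1 or SEM at 500 cells/well, P12-Ichikawa at 1000 cells/well) were adapted for at least four passages in each medium and seeded in 1536-well plates (5 μl). Library compounds in DMSO were pin-dosed over an 11-point threefold series from 47 μM to 0.79 nM, and CellTiter-Glo One luminescence was read after 48 h at 37°C.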

[1] = HPLM + 10% dialyzed FBS, 0.000781 µM
[2] = HPLM + 10% dialyzed FBS, 0.00234 µM
[3] = HPLM + 10% dialyzed FBS, 0.00702 µM
[4] = HPLM + 10% dialyzed FBS, 0.0211 µM
[5] = HPLM + 10% dialyzed FBS, 0.0632 µM
[6] = HPLM + 10% dialyzed FBS, 0.19 µM
[7] = HPLM + 10% dialyzed FBS, 0.569 µM
[8] = HPLM + 10% dialyzed FBS, 1.71 µM
[9] = HPLM + 10% dialyzed FBS, 5.12 µM
[10] = HPLM + 10% dialyzed FBS, 15.4 µM
[11] = HPLM + 10% dialyzed FBS, 46.1 µM
[12] = RPMI 5 mM glucose + 10% FBS, 0.000781 µM
[13] = RPMI 5 mM glucose + 10% FBS, 0.00234 µM
[14] = RPMI 5 mM glucose + 10% FBS, 0.00702 µM
[15] = RPMI 5 mM glucose + 10% FBS, 0.0211 µM
[16] = RPMI 5 mM glucose + 10% FBS, 0.0632 µM
[17] = RPMI 5 mM glucose + 10% FBS, 0.19 µM
[18] = RPMI 5 mM glucose + 10% FBS, 0.569 µM
[19] = RPMI 5 mM glucose + 10% FBS, 1.71 µM
[20] = RPMI 5 mM glucose + 10% FBS, 5.12 µM
[21] = RPMI 5 mM glucose + 10% FBS, 15.4 µM
[22] = RPMI 5 mM glucose + 10% FBS, 46.1 µM
[23] = RPMI 5 mM glucose + 10% dialyzed FBS, 0.000781 µM
[24] = RPMI 5 mM glucose + 10% dialyzed FBS, 0.00234 µM
[25] = RPMI 5 mM glucose + 10% dialyzed FBS, 0.00702 µM
[26] = RPMI 5 mM glucose + 10% dialyzed FBS, 0.0211 µM
[27] = RPMI 5 mM glucose + 10% dialyzed FBS, 0.0632 µM
[28] = RPMI 5 mM glucose + 10% dialyzed FBS, 0.19 µM
[29] = RPMI 5 mM glucose + 10% dialyzed FBS, 0.569 µM
[30] = RPMI 5 mM glucose + 10% dialyzed FBS, 1.71 µM
[31] = RPMI 5 mM glucose + 10% dialyzed FBS, 5.12 µM
[32] = RPMI 5 mM glucose + 10% dialyzed FBS, 15.4 µM
[33] = RPMI 5 mM glucose + 10% dialyzed FBS, 46.1 µM

| SMILES | cell viability [1] [%] | cell viability [2] [%] | cell viability [3] [%] | cell viability [4] [%] | cell viability [5] [%] | cell viability [6] [%] | cell viability [7] [%] | cell viability [8] [%] | cell viability [9] [%] | cell viability [10] [%] | cell viability [11] [%] | cell viability [12] [%] | cell viability [13] [%] | cell viability [14] [%] | cell viability [15] [%] | cell viability [16] [%] | cell viability [17] [%] | cell viability [18] [%] | cell viability [19] [%] | cell viability [20] [%] | cell viability [21] [%] | cell viability [22] [%] | cell viability [23] [%] | cell viability [24] [%] | cell viability [25] [%] | cell viability [26] [%] | cell viability [27] [%] | cell viability [28] [%] | cell viability [29] [%] | cell viability [30] [%] | cell viability [31] [%] | cell viability [32] [%] | cell viability [33] [%] |
| --- | --- | --- | --- | --- | --- | --- | --- | --- | --- | --- | --- | --- | --- | --- | --- | --- | --- | --- | --- | --- | --- | --- | --- | --- | --- | --- | --- | --- | --- | --- | --- | --- | --- |
| CC(NCc1ccc2c(c1)[nH]/c(=N\C(=O)c1ccc(-c3cn[nH]c3)s1)n2CC(C)(C)O)C(C)(C)C (stereo not given) | 112 | 89.6 | 62.7 | 52.4 | 47.7 | 41 | 24.9 | 10.9 | 8.32 | 2.2 | 2.08 | 96.7 | 112 | 76.3 | 58.5 | 48 | 36.5 | 31.3 | 14.9 | 4.21 | 1.66 | 1.98 | 122 | 85.4 | 79.8 | 42.4 | 45.7 | 41.5 | 27.2 | 16.2 | 6.16 | 1.94 | 1.53 |
| CN(C)CCCNC(=O)c1ccc(-c2cc(O)c3ncccc3c2)cc1 | 107 | 110 | 112 | 103 | 99.7 | 103 | 104 | 91.6 | 92.6 | 81.9 | 40.2 | 107 | 107 | 109 | 103 | 117 | 112 | 120 | 115 | 104 | 78.2 | 27.1 | 95.5 | 103 | 95.2 | 113 | 95.2 | 100 | 103 | 105 | 93.3 | 74.1 | 33 |
| CCN(C)C(=O)Oc1cccc([C@H](C)N(C)C)c1 | 101 | 108 | 104 | 125 | 110 | 119 | 97.4 | 105 | 99.2 | 101 | 105 | 121 | 114 | 108 | 111 | 122 | 90.1 | 95.9 | 95.9 | 85.7 | 105 | 99.5 | 124 | 100 | 111 | 121 | 110 | 109 | 121 | 101 | 111 | 110 | 95.6 |
| Cc1c(C(=O)Nc2cccc(C(F)(F)F)c2)cc(-c2ccccc2)n1CCCN1CCOCC1 | 99.2 | 112 | 106 | 105 | 111 | 96.3 | 111 | 99.5 | 90.3 | 93.6 | 62.8 | 89.6 | 106 | 119 | 116 | 110 | 101 | 122 | 101 | 115 | 93.6 | 50.9 | 104 | 111 | 121 | 113 | 121 | 115 | 109 | 109 | 95 | 92.6 | 45.8 |
| CN(C)C[C@@H]1CC[N]2C=C(C3=C2C=CC=C3)C/4=C(/C(=O)NC4=O)C5=C[N](CCO1)C6=C5C=CC=C6 | 87.6 | 56.8 | 105 | 110 | 97.5 | 99.6 | 91.2 | 81.4 | 79.2 | 56.8 | 2.57 | 118 | 59.2 | 97.3 | 97 | 99.2 | 119 | 105 | 89.1 | 77.7 | 49.6 | 2.71 | 97.7 | 47.9 | 102 | 105 | 107 | 105 | 93.7 | 87.2 | 73.2 | 51.8 | 2.49 |
| COC(=O)[C@@H](N)CCCNC(=N)N[N+](=O)[O-] | 82 | 37.9 | 89.1 | 96.1 | 94.3 | 95.1 | 87.2 | 110 | 93.1 | 89.9 | 95.2 | 95.5 | 39.2 | 90.7 | 92.1 | 95.2 | 102 | 90.3 | 101 | 104 | 104 | 101 | 85.1 | 26.2 | 78 | 89.3 | 101 | 84.8 | 99 | 108 | 101 | 107 | 104 |
| CC[C@@]1(O)C[C@H](O[C@H]2C[C@H](N(C)C)[C@H](O[C@H]3C[C@H](O)[C@H](O[C@H]4CCC(=O)[C@H](C)O4)[C@H](C)O3)[C@H](C)O2)c2c(cc3c(c2O)C(=O)c2c(O)cccc2C3=O)[C@H]1C(=O)OC | 79.8 | 68.5 | 86.2 | 77.9 | 48.4 | 50 | 26.5 | 11.4 | 13.5 | 24 | 15.8 | 81 | 65.9 | 85.2 | 72.5 | 46.2 | 54.4 | 32.7 | 18.1 | 23.2 | 20.2 | 19.5 | 85.5 | 48.6 | 83.7 | 66.7 | 46.2 | 51.3 | 26.2 | 11.8 | 12.2 | 15.4 | 12.9 |
| CC1(C)CC(O)CC(C)(C)N1[O] | 87.2 | 80.3 | 89.8 | 86.9 | 81.6 | 89.1 | 44.7 | 94.3 | 89.5 | 92.1 | 84.2 | 102 | 114 | 96.3 | 105 | 98.6 | 96.6 | 27.7 | 101 | 113 | 103 | 99.5 | 98.6 | 94.6 | 97.8 | 97.5 | 94.3 | 95.4 | 32.7 | 106 | 108 | 102 | 85.4 |
| CCN(CC)CCN1C(=O)\C(=N/C2=CC=CC=C12)CC3=CC=C(OC)C=C3 | 68.2 | 67.5 | 87.2 | 76.3 | 85.3 | 80.3 | 99.1 | 83.6 | 75.2 | 86.8 | 85.4 | 82.7 | 93.1 | 97.8 | 78.5 | 93.8 | 105 | 101 | 106 | 91.9 | 92 | 107 | 78.2 | 89.4 | 87.1 | 89 | 94.3 | 97.1 | 112 | 96.6 | 93.3 | 88 | 102 |
| NC\1=N\C(=O)N(\C=C1)[C@H]\2[C@H](O)[C@H](O)C(=C2F)\CO | 77.6 | 90.2 | 85 | 103 | 92.2 | 97.6 | 108 | 96.3 | 52.5 | 28.8 | 16.8 | 118 | 116 | 130 | 148 | 113 | 118 | 128 | 117 | 74.1 | 74.5 | 57.9 | 90.2 | 95.3 | 95.1 | 103 | 117 | 109 | 92.2 | 51.8 | 23.1 | 19 | 15.3 |
| CCCCCCCCCCCCCCCCCCOP(=O)([O-])OC1CC[N+](C)(C)CC1 | 82.4 | 112 | 97.5 | 88.7 | 103 | 101 | 109 | 106 | 87.4 | 82.4 | 73.8 | 91.9 | 104 | 100 | 95.3 | 120 | 108 | 104 | 102 | 98.2 | 98.4 | 73.7 | 101 | 96.9 | 98 | 84.3 | 99.9 | 94.9 | 101 | 99.9 | 87.6 | 82 | 60.2 |
| CC(C)[C@H](CO)Nc1nc(Nc2cccc(Cl)c2)c2ncn(C(C)C)c2n1 | 88.8 | 88.2 | 97.6 | 101 | 110 | 99.4 | 69.8 | 49.4 | 3.37 | 1.22 | 2.26 | 86.7 | 112 | 101 | 95.4 | 71 | 86.4 | 21.6 | 4.3 | 1.34 | 0.473 | 1.1 | 98.6 | 107 | 91.5 | 104 | 106 | 93.5 | 35.7 | 18.9 | 1.89 | 0.704 | 1.74 |
| O=C(NNC(=O)c1ccc(CN[S+](=O)([O-])c2ccc(F)c(Cl)c2)cc1)c1ccccc1 | 84.6 | 97.1 | 98.2 | 89.9 | 107 | 109 | 109 | 102 | 112 | 106 | 87 | 92.9 | 85.2 | 92.5 | 75 | 91.5 | 98.3 | 102 | 105 | 88.2 | 104 | 106 | 79.6 | 76.6 | 89.6 | 97.4 | 96 | 91.1 | 93.1 | 96.9 | 87 | 103 | 64.5 |
| Oc1cc(O)cc(/C=C/c2ccc(O)c(O)c2)c1 | 86.5 | 85.8 | 89.6 | 80.1 | 99.9 | 92.7 | 93.3 | 106 | 78.1 | 77.9 | 44.6 | 101 | 102 | 95 | 107 | 101 | 101 | 115 | 92.7 | 85.3 | 67.5 | 14.2 | 87.9 | 92.7 | 78.6 | 82.6 | 87.5 | 89.8 | 97.6 | 84.2 | 82.4 | 63.4 | 27.3 |
| CN[C@@H]1C[C@H]2O[C@@](C)([C@@H]1OC)n1c3ccccc3c3c4c(c5c6ccccc6n2c5c31)C(=O)N[C@H]4O | 72.1 | 79.1 | 87.6 | 77.7 | 64 | 55.4 | 36.7 | 16.5 | 6.79 | 3.78 | 3.23 | 81.2 | 87.9 | 83.8 | 84.1 | 57.5 | 69.5 | 35.4 | 5.65 | 4.44 | 4.12 | 2.58 | 82.8 | 78 | 76.6 | 90.4 | 67.3 | 69.8 | 45 | 5.6 | 5.83 | 3.57 | 2.57 |

From the supplement of paper PMC11451515
